The text below walks through data of the NIST ThermoML archive (doi:10.1021/acs.jced.5b00436).

Numbers after ± are expanded uncertainties.

The nature of this data set: refractive index (Na D-line) (dimensionless). Conditions: 293.15 K; 101.33 kPa; Liquid; Standard Abbe refractometry.
Take `OCC(F)(F)C(F)(F)C(F)(F)C(F)F` [2,2,3,3,4,4,5,5-octafluoro-1-pentanol]: the refractive index is 1.3171 ± 0.0005.
For `O` [water], the refractive index is recorded as 1.3328 ± 0.0005.
On to `CCO` [ethanol], for which the refractive index came to 1.3616 ± 0.0005.
